Key:
[1] = target: T1, human apo-transferrin (apo-Tf) (Homo sapiens, UniProt P02787); assay: Circular dichroism of apo-transferrin, alpha-helix content; assay type: binding; conditions: free protein 19.80%
T1 construct: purchased Sigma-Aldrich
Method: Circular dichroism (CD) measurements in the far UV region were performed to determine the effect of copper complexes on the apo-transferrin secondary structure. A characteristic for α-helical structure of protein negative bands was visible in the CD spectrum at wavelengths of 210 and 220 nm (Figure 7) and were assigned n-π* transitions peptide bonds. […] The α-helix content the free protein was equal to 19.80%.
High purity apo-transferrin (≥ 98%, Sigma-Aldrich, Steinheim, North Rhine-Westphalia, Germany) was used without prior purification. The stock solutions of the complexes were prepared in demineralized water (1 and 2) or ethanol (3). The apo-Tf was dissolved in PBS (pH 7.40). […] Samples were incubated at 300 and 310 K for 5 min. The apo-Tf concentration was determined using ε (280 nm) = 11.2 mM^−1 × cm^−1.
Circular dichroism measurements were carried out on a Jasco J-715 spectropolarimeter (Tokyo, Japan) in the range of 190–250 nm using 0.1-cm cuvettes. The α-helical content of the protein was calculated from the Equations (9) and (10):(9) MRE209= ObservedCDmdeg/Cp· n· l ·10 (10) α−helix %= −MRE209−4000/33000−4000×100 where MRE is the mean residue ellipticity, Cp is the molar concentration of the protein, n the number of amino acid residues (679), and l is the path length (0.1 cm).

[2] = target: T1, human apo-transferrin (apo-Tf); assay: Apo-transferrin interaction by fluorescence quenching (Stern-Volmer, binding, van't Hoff); conditions: for Kq (quenching rate constant): Kq = Ksv/τo, τo 2.5 ns; for Ka (association constant) / Ksv (Stern-Volmer quenching constant): PBS pH 7.40; for H^0 (enthalpy change) / S^0 (entropy change): van't Hoff, 300 and 310 K
From the text: There are two mechanisms of fluorescence quenching, dynamic and static, that can be distinguished based on the temperature dependency. Dynamic quenching is due to collisions between quencher and fluorophore and static quenching results from the formation of the ground state complex between the molecules. A modified Stern–Volmer equation (Equation (3)) was used to calculate Stern–Volmer quenching constants (KSV) and quenching rate constants (Kq) of the interactions between apo-transferrin and copper complexes and to determine the mechanism of fluorescence quenching. Fo/(Fo − F) = 1/fa + 1/(faKsv[Q])(3)
In the equation, Fo and F are the fluorescence intensities of protein in the absence and presence of the quencher in the concentration (Q), respectively; KSV is the Stern–Volmer quenching constant; and fa is the fraction of the fluorophore accessible to the quencher.
Kq, the quenching rate constant of the biomolecules, is expressed as:Kq = Ksv/τo(4) where τo is the fluorescence lifetime of protein without quencher. For apo-transferrin, the τo value is 2.5 ns.
Association constants (Ka) and number of binding sites (n) were determined based on the Equation (5):log {(Fo − F)/F} = logKa + nlog[Q](5) where Fo and F are the fluorescence intensities in the absence and presence of the quencher in the concentration (Q), respectively, Ka is the binding constant, and n is the number of binding sites.
It is known that interactions between proteins and small molecules include hydrogen bonds, van der Waals, and electrostatic forces as well hydrophobic interactions. Based on thermodynamic parameters, we determined the type of interaction of copper complexes with apo-transferrin.
∆G^0 = ∆H^0 − T∆S^0(7) where Ka is the bimolecular binding constant at the corresponding temperature (T); R is the gas constant; and ΔH^0, ΔS^0, and ΔG^0 are enthalpy, entropy, and free energy change, respectively.
High purity apo-transferrin (≥ 98%, Sigma-Aldrich, Steinheim, North Rhine-Westphalia, Germany) was used without prior purification. The stock solutions of the complexes were prepared in demineralized water (1 and 2) or ethanol (3). The apo-Tf was dissolved in PBS (pH 7.40). The molar ratios of the final samples in PBS were (protein):(drug) = 1:0–1:16 in PBS with the protein concentration equal 2 μM. Samples were incubated at 300 and 310 K for 5 min. The apo-Tf concentration was determined using ε (280 nm) = 11.2 mM^−1 × cm^−1.
Emission fluorescence spectra were recorded on Jasco 8200 spectrofluorimeter (Tokyo, Japan) in the range of 300–500 nm using 1.0 cm quartz cells. The λex was set to 280 nm and the excitation and emission slit widths were set to 5 nm. All fluorescence intensities were corrected (according to Equation (8)) for the inner filter and dilution effects and the corrected values were used to determine the quenching mechanism and binding data. […] Therefore, all spectra are shown as different spectra of (apo-Tf-copper complex)−(copper complex). Fcorr = exp(A280 + Aem/2) × Fexp(8)

[3] = Octanol-water partition coefficient (log P), UV-Vis; assay type: physicochemical; conditions: room temperature, 10^−5 M
Method: The log P values consistent to the octanol-water partition coefficient were adjusted to the solubility properties of the compounds [94]. Complexes 1–3 were dissolved in water, previously saturated with octanol with concentrations 10^−5 M. Into a 25-mL flask at room temperature with a magnetic stir bar was introduced initially 5 mL of octanol previously saturated with water and then 5 mL of the complex solutions in water. A two-phase mixture was stirred vigorously for 15 min and samples, which were measured by UV-Vis spectroscopy, were taken from the separated phases.

[4] = molar ratio apo-Tf:complex 1:20

T1 sequence (P02787 20-698): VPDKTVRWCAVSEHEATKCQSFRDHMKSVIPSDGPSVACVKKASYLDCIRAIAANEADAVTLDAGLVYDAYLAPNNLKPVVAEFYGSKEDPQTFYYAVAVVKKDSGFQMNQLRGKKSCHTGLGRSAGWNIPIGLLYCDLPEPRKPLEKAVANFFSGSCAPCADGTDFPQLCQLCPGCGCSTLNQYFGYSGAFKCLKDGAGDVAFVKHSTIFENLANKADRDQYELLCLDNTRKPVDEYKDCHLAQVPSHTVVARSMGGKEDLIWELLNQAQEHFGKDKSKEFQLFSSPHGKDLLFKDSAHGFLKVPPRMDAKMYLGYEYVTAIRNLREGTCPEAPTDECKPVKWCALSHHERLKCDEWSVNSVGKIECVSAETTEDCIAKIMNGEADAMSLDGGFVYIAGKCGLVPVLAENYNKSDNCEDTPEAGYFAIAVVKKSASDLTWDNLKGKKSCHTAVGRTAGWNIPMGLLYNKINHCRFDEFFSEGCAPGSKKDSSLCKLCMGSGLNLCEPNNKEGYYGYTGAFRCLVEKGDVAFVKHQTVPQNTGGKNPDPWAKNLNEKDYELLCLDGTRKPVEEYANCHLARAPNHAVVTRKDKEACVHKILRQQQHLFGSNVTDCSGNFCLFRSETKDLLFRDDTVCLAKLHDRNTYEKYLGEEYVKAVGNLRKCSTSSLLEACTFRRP

| SMILES | α-helix content of apo-Tf upon binding [1, 4] [%] | G^0 (free energy change) ([2]; 300 K) [kcal/mol] | n (number of binding sites) ([2]; 300 K) | Kq (quenching rate constant) ([2]; 300K) | Ka (association constant) ([2]; 300K) | Ksv (Stern-Volmer quenching constant) ([2]; 300K) | G^0 (free energy change) ([2]; 310 K) [kcal/mol] | n (number of binding sites) ([2]; 310 K) | Kq (quenching rate constant) ([2]; 310K) | Ka (association constant) ([2]; 310K) | Ksv (Stern-Volmer quenching constant) ([2]; 310K) | H^0 (enthalpy change) [2] [kcal/mol] | S^0 (entropy change) [2] [J mol^−1 K^−1] | log P (octanol-water partition coefficient) [3] | α-helix content of apo-Tf upon binding ([1]; molar ratio apo-Tf:complex 1:10) [%] | Ksv values ([2]; 300 K) [M⁻¹] | Ksv values ([2]; 310 K) [M⁻¹] |
| --- | --- | --- | --- | --- | --- | --- | --- | --- | --- | --- | --- | --- | --- | --- | --- | --- | --- |
| Cc1ccc2ccc3ccc(C)nc3c2n1.F[P-](F)(F)(F)(F)F.O=P12CN3CN(CN(C3)C1)C2.O=[N+]([O-])[O-].[Cu+2] [Complex 1, [Cu(NO3)(PTA=O)(dmphen)][PF6]] | 19.07 | -8.253 | 1.26 ± 0.033 | 1.00 ± 0.011 ·10^13 [M^−1s^−1] | 1.03 ± 0.16 ·10^6 [M^−1] | 2.50 ± 0.011 ·10^4 [M^−1] | -8.406 | 1.24 ± 0.036 | 1.17 ± 0.029 ·10^13 [M^−1s^−1] | 0.843 ± 0.17 ·10^6 [M^−1] | 2.92 ± 0.029 ·10^4 [M^−1] | -3.664 | 63.99 | 0.90 |  |  |  |
| Cc1ccc2ccc3ccc(C)nc3c2n1.Cc1ccc2ccc3ccc(C)nc3c2n1.F[P-](F)(F)(F)(F)F.[Cl-].[Cu+2] [Complex 2, [Cu(Cl)(dmphen)2][PF6]] | 18.00 | -9.118 | 1.35 ± 0.050 | 1.61 ± 0.050 ·10^13 [M^−1s^−1] | 4.38 ± 0.24 ·10^6 [M^−1] | 4.03 ± 0.050 ·10^4 [M^−1] | -9.19 | 1.31 ± 0.066 | 2.27 ± 0.024 ·10^13 [M^−1s^−1] | 3.04 ± 0.32 ·10^6 [M^−1] | 5.69 ± 0.024 ·10^4 [M^−1] | -6.75 | 33.02 | 1.75 |  |  |  |
| CC#N.Cc1ccc2ccc3ccc(C)nc3c2n1.O=[N+]([O-])[O-].O=[N+]([O-])[O-].[Cu+2] [Complex 3, [Cu(NO3)2(dmphen)]∙MeCN] | 8.16 | -9.563 | 1.40 ± 0.076 |  | 9.26 ± 0.37 ·10^6 [M^−1] | 5.37 ± 0.023 ·10^4 [M^−1] | -9.888 | 1.42 ± 0.068 | 1.40 ± 0.062 ·10^13 [M^−1s^−1] | 9.38 ± 0.33 ·10^6 [M^−1] | 3.51 ± 0.062 ·10^4 [M^−1] | 230 | 136.57 | 1.11 | 17.05 | 53700 | 35100 |

Source: paper PMC7037393, “Synthesis, Structural, and Cytotoxic Properties of New Water-Soluble Copper(II) Complexes Based on 2,9-Dimethyl-1,10-Phenanthroline and Their One Derivative Containing 1,3,5-Triaza-7-Phosphaadamantane-7-Oxide” (Molecules, 2020)
